Target: T1, Recombinant human LTC4 synthase (Homo sapiens, UniProt Q16873)
T1 construct: made in house; host or cells: Pichia pastoris ('Piccia pastoralis' [sic])
T1 sequence (Q16873 1-150): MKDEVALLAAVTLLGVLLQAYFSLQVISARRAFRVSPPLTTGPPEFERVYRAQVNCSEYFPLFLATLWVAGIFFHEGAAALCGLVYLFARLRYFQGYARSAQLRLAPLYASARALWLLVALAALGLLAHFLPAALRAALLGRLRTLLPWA
Test: LTC4 synthase in vitro assay (LTA4 to LTC4, HTRF detection)
Format: biochemical
Details: for inhibition at 10 µM: 5 min, total concentration of title compound in the assay 10 μM
Experimental: In the assay, LTC4 synthase catalyses the reaction where the substrate LTA4 is converted to LTC4. Recombinant human LTC4 synthase is expressed in Piccia pastoralis and the purified enzyme is dissolved in 25 mM tris-buffer pH 7.8 supplemented with 0.1 mM glutathione (GSH) and stored at −80° C. The assay is performed in phosphate buffered saline (PBS) pH 7.4 and 5 mM GSH in 384-well plates.
The following is added chronologically to each well:
1.48 μL LTC4 synthase in PBS with 5 mM GSH. The total protein concentration in this solution is 0.5 μg/mL. 2. 1 μL inhibitor in DMSO (final concentration 10 μM). 3. Incubation of the plate at room temperature for 10 min. 4. 1 μL LTA4 (final concentration 2.5 μM). 5. Incubation of the plate at room temperature for 5 min. 6. 10 μL of the incubation mixture is analysed using homogenous time resolved fluorescent (HTRF) detection.

Row | IC50 | inhibition at 10 µM | SMILES
1 | 20 nM |  | N#Cc1ccccc1Oc1ccccc1Oc1ccc(C(=O)c2ccc(N(CC3CC3)c3ccc(Cl)cc3)cn2)cc1C(=O)O [1:32, 5-{5-[(4-Chlorophenyl)(cyclopropylmethyl)amino]picolinoyl}-2-[2-(2-cyanophenoxy)phenoxy]benzoic acid]
2 | 351 nM |  | C#CCN(c1ccc(C(=O)c2ccc(Oc3ccccc3F)c(C(=O)O)c2)nc1)c1ccc(Cl)cc1F [1:33, 5-{5-[(4-Chloro-2-fluorophenyl)(2-propynyl)amino]picolinoyl}-2-(2-fluorophenoxy)benzoic acid]
3 | 195 nM |  | O=C(c1ccc(Oc2ccccc2F)c(C(=O)O)c1)c1ccc(N(CC2CC2)c2ccc(Cl)cc2F)cn1 [1:34, 5-{5-[(4-Chloro-2-fluorophenyl)(cyclopropylmethyl)amino]picolinoyl}-2-(2-fluorophenoxy)benzoic acid]
4 | 621 nM |  | O=C(c1ccc(Oc2ccccc2F)c(C(=O)O)c1)c1ccc(N(CC(F)(F)F)c2ccc(Cl)cc2F)cn1 [1:35, 5-{5-[(4-Chloro-2-fluorophenyl)-(2,2,2-trifluoroethyl)amino]picolinoyl}-2-(2-fluorophenoxy)benzoic acid]
5 | 116 nM |  | O=C(c1ccc(Oc2ccccc2CCCO)c(C(=O)O)c1)c1ccc(N(CC2CC2)c2ccc(Cl)cc2)cn1 [1:36, 5-{5-[(4-Chlorophenyl)(cyclopropylmethyl)amino]picolinoyl}-2-[2-(3-hydroxypropyl)phenoxy]benzoic acid]
6 | 300 nM |  | CS(=O)(=O)c1ccc(Oc2ccc(C(=O)c3ccc(N(CC4CC4)c4ccc(Cl)cc4)cn3)cc2C(=O)O)cc1 [1:37, 5-{5-[(4-Chlorophenyl)(cyclopropylmethyl)amino]picolinoyl}-2-(4-methylsulfonylphenoxy)benzoic acid]
7 | 79 nM |  | O=C(c1ccc(Oc2ccccc2F)c(C(=O)O)c1)c1ccc(N(CC2CC2)c2ccc(Cl)cc2)cn1 [1:38, 5-{5-[(4-Chlorophenyl)(cyclopropylmethyl)amino]picolinoyl}-2-(2-fluorophenoxy)benzoic acid]
8 | 70 nM |  | COc1cc(OC)cc(Oc2ccc(C(=O)c3ccc(N(CC4CC4)c4ccc(Cl)cc4)cn3)cc2C(=O)O)c1 [1:39, 5-{5-[(4-Chlorophenyl)(cyclopropylmethyl)amino]picolinoyl}-2-(3,5-dimethoxyphenoxy)benzoic acid]
9 | 66 nM |  | O=C(c1ccc(Oc2ccccc2Oc2ccccc2)c(C(=O)O)c1)c1ccc(N(CC2CC2)c2ccc(Cl)cc2)cn1 [1:40, 5-{5-[(4-Chlorophenyl)(cyclopropylmethyl)amino]picolinoyl}-2-(2-phenoxyphenoxy)benzoic acid]
10 | 1320 nM |  | CC1(CN(c2ccc(C(=O)c3ccc(Oc4ccccc4F)c(C(=O)O)c3)nc2)c2ccc(Cl)cc2F)COC1 [1:41, 5-{5-[(4-Chloro-2-fluorophenyl)-(3-methyloxetan-3-ylmethyl)amino]picolinoyl}-2-(2-fluorophenoxy)benzoic acid]
11 | 52 nM |  | O=C(c1ccc(Oc2ccccc2Oc2ccc(F)cc2F)c(C(=O)O)c1)c1ccc(N(CC2CC2)c2ccc(Cl)cc2)cn1 [1:42, 5-{5-[(4-Chlorophenyl)(cyclopropylmethyl)amino]picolinoyl}-2-[2-(2,4-difluorophenoxy)phenoxy]benzoic acid]
12 | 61 nM |  | O=C(c1ccc(Oc2ccccc2Oc2cccnc2)c(C(=O)O)c1)c1ccc(N(CC2CC2)c2ccc(Cl)cc2)cn1 [1:43, 5-{5-[(4-Chlorophenyl)(cyclopropylmethyl)amino]picolinoyl}-2-[2-(3-pyridyloxy)phenoxy]benzoic acid]
13 | 57 nM |  | O=C(c1ccc(Oc2ccccc2Oc2ccccn2)c(C(=O)O)c1)c1ccc(N(CC2CC2)c2ccc(Cl)cc2)cn1 [1:44, 5-{5-[(4-Chlorophenyl)(cyclopropylmethyl)amino]picolinoyl}-2-[2-(2-pyridyloxy)phenoxy]benzoic acid]
14 | 32 nM |  | O=C(c1ccc(Oc2ccccc2Oc2ccccc2Cl)c(C(=O)O)c1)c1ccc(N(CC2CC2)c2ccc(Cl)cc2)cn1 [1:45, 2-[2-(2-Chlorophenoxy)phenoxy]-5-{5-[(4-chlorophenyl)(cyclopropylmethyl)amino]picolinoyl}benzoic acid]
15 | 40 nM |  | O=C(c1ccc(Oc2ccccc2Oc2ccccc2F)c(C(=O)O)c1)c1ccc(N(CC2CC2)c2ccc(Cl)cc2)cn1 [1:46, 5-{5-[(4-Chlorophenyl)(cyclopropylmethyl)amino]picolinoyl}-2-[2-(2-fluorophenoxy)phenoxy]benzoic acid]
16 | 1030 nM | 88% | CN(c1ccc(Cl)cc1)c1ccc(C(=O)c2ccc(Oc3ccccc3[S+](C)[O-])c(C(=O)O)c2)nc1 (stereo not drawn) [1:47, 5-{5-[(4-Chlorophenyl)(methyl)amino]picolinoyl}-2-(2-methylsulfinylphenoxy)-benzoic acid]
17 | 632 nM | 95% | CN(c1ccc(Cl)cc1)c1ccc(C(=O)c2ccc(Oc3ccccc3S(C)(=O)=O)c(C(=O)O)c2)nc1 [1:48, 5-{5-[(4-Chlorophenyl)(methyl)amino]picolinoyl}-2-(2-methylsulfonylphenoxy)-benzoic acid]

Row | IC50 | inhibition at 10 µM | SMILES
18 | 53 nM | 99% | CN(c1ccc(Cl)cc1)c1ccc(C(=O)c2ccc(Nc3ccc(C(F)(F)F)cc3)c(C(=O)O)c2)nc1 [2:1, 5-{5-[(4-Chlorophenyl)(methyl)amino]picolinoyl}-2-(4-trifluoromethylphenyl-amino)benzoic acid]
19 | 66 nM |  | CN(c1ccc(Cl)cc1)c1ccc(C(=O)c2ccc(NC3CCC(C(C)(C)C)CC3)c(C(=O)O)c2)nc1 (stereo not drawn) [2:2, 2-(4-tert-Butylcyclohexylamino)-5-{5-[(4-chlorophenyl)(methyl)amino]picolinoyl}-benzoic acid]
20 | 92 nM |  | CN(c1ccc(Cl)cc1)c1ccc(C(=O)c2ccc(NCc3ccccc3)c(C(=O)O)c2)nc1 [2:3, 2-Benzylamino-5-{5-[(4-chlorophenyl)(methyl)amino]picolinoyl}benzoic acid]
21 | 140 nM |  | CN(c1ccc(Cl)cc1)c1ccc(C(=O)c2ccc(NC3CCCCC3)c(C(=O)O)c2)nc1 [2:4, 5-{5-[(4-Chlorophenyl)(methyl)amino]picolinoyl}cyclohexylaminobenzoic acid]
22 | 3000 nM |  | CN(c1ccc(Cl)cc1)c1ccc(C(=O)c2ccc(N3CCC(C(C)(C)C)CC3)c(C(=O)O)c2)nc1 [2:5, 2-(4-tert-Butylpiperidin-1-yl)-5-{5-[(4-chlorophenyl)(methyl)amino]picolinoyl}benzoic acid]
23 | 151 nM |  | COc1ccc(CNc2ccc(C(=O)c3ccc(N(C)c4ccc(Cl)cc4)cn3)cc2C(=O)O)cc1 [2:6, 5-{5-[(4-Chlorophenyl)(methyl)amino]picolinoyl}-2-(4-methoxybenzylamino)benzoic acid]
24 | 133 nM |  | COc1cccc(CNc2ccc(C(=O)c3ccc(N(C)c4ccc(Cl)cc4)cn3)cc2C(=O)O)c1 [2:7, 5-{5-[(4-Chlorophenyl)(methyl)amino]picolinoyl}-2-(3-methoxybenzylamino)benzoic acid]
25 | 132 nM |  | COc1ccccc1CNc1ccc(C(=O)c2ccc(N(C)c3ccc(Cl)cc3)cn2)cc1C(=O)O [2:8, 5-{5-[(4-Chlorophenyl)(methyl)amino]picolinoyl}-2-(2-methoxybenzylamino)benzoic acid]
26 | 466 nM |  | CN(c1ccc(Cl)cc1)c1ccc(C(=O)c2ccc(NCc3cccnc3)c(C(=O)O)c2)nc1 [2:9, 5-{5-[(4-Chlorophenyl)(methyl)amino]picolinoyl}-2-[(3-pyridylmethyl)amino]benzoic acid]
27 | 157 nM |  | CN(c1ccc(Cl)cc1)c1ccc(C(=O)c2ccc(NCc3ccc(F)cc3)c(C(=O)O)c2)nc1 [2:10, 5-{5-[(4-Chlorophenyl)(methyl)amino]picolinoyl}-2-(4-fluorobenzylamino)benzoic acid]
28 | 88 nM |  | CN(c1ccc(Cl)cc1)c1ccc(C(=O)c2ccc(NCc3ccc(Cl)cc3Cl)c(C(=O)O)c2)nc1 [2:11, 5-{5-[(4-Chlorophenyl)(methyl)amino]picolinoyl}-2-(2,4-dichlorobenzylamino)benzoic acid]
29 | 66 nM |  | CN(c1ccc(Cl)cc1)c1ccc(C(=O)c2ccc(NCc3ccc4c(c3)OCO4)c(C(=O)O)c2)nc1 [2:12, 5-{5-[(4-Chlorophenyl)(methyl)amino]picolinoyl}-2-(3,4-methylenedioxybenzylamino)benzoic acid]
30 | 160 nM |  | COc1ccc(Nc2ccc(C(=O)c3ccc(N(C)c4ccc(Cl)cc4)cn3)cc2C(=O)O)cc1 [2:13, 5-{5-[(4-Chlorophenyl)(methyl)amino]picolinoyl}-2-(4-methoxyphenylamino)benzoic acid]
31 | 68 nM |  | COc1ccccc1Nc1ccc(C(=O)c2ccc(N(C)c3ccc(Cl)cc3)cn2)cc1C(=O)O [2:14, 5-{5-[(4-Chlorophenyl)(methyl)amino]picolinoyl}-2-(2-methoxyphenylamino)benzoic acid]
32 | 184 nM |  | CN(c1ccc(Cl)cc1)c1ccc(C(=O)c2ccc(NC3CCC(F)(F)CC3)c(C(=O)O)c2)nc1 [2:15, 5-{5-[(4-Chlorophenyl)(methyl)amino]picolinoyl}-2-(4,4-difluorocyclohexylamino)benzoic acid]
33 | 333 nM |  | CN(c1ccc(Cl)cc1)c1ccc(C(=O)c2ccc(NC3CCOCC3)c(C(=O)O)c2)nc1 [2:16, 5-{5-[(4-Chlorophenyl)(methyl)amino]picolinoyl}-2-(4-tetrahydropyranylamino)benzoic acid]
